Measurements from ChEMBL document CHEMBL5728220, “[1,3]thiazin-2-amine compound, application, and pharmaceutical composition” (2021).

Target: Beta-secretase 1 (Homo sapiens, UniProt P56817)
Test: Activity Assay: The activity assay for the compound of each example was carried out in this experimental example, and the detailed test method was as follows:1. The test compound was formulated as 10 μmol/L solution in dimethylsulfoxide;2. Starting from 10 μmol/L, by 3-fold serial dilution, the inhibitory activity of each compound against the enzyme was tested in singlet state at 10 doses;3. IC50 values of test compounds were finally obtained.

Sequence of Beta-secretase 1 (P56817 whole entry): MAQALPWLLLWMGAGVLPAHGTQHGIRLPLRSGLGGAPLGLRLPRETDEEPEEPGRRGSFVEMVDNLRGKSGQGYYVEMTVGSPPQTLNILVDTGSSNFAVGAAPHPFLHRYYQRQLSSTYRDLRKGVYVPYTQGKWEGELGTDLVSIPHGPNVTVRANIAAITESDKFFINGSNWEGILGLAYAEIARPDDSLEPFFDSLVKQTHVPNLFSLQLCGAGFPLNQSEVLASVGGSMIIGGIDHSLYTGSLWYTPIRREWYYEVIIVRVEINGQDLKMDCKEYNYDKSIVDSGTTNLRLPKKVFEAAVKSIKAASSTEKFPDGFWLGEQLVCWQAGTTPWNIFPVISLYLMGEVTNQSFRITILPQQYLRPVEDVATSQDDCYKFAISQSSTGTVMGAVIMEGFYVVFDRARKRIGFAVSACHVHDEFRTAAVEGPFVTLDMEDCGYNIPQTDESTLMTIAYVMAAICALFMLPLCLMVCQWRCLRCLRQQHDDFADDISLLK

- IC50: 0.213 µM
SMILES: C[C@H]1C[C@@]2(F)CSC(N)=N[C@@]2(c2cccc(NC(=O)c3ccc(Cl)cn3)c2)CO1
